Experimental data: patent US8461389B2, “Psycho-pharmaceuticals” (University College Dublin, National University of Ireland, …, priority 2008, dated 2013)

Columns and labels:
serotonin 5HT2c receptor = target: T1, serotonin 5HT2c receptor (Homo sapiens, UniProt P28335); assay: Novascreen receptor affinity screen (competition with reference ligand), 5HT2c; format: binding; settings: 1 μM Captodiamine competing with a reference ligand; read-out: percent target inhibition, serotonin 5HT2c receptor
T1 construct: Novascreen (contract screen)
T1 sequence (P28335 33-458): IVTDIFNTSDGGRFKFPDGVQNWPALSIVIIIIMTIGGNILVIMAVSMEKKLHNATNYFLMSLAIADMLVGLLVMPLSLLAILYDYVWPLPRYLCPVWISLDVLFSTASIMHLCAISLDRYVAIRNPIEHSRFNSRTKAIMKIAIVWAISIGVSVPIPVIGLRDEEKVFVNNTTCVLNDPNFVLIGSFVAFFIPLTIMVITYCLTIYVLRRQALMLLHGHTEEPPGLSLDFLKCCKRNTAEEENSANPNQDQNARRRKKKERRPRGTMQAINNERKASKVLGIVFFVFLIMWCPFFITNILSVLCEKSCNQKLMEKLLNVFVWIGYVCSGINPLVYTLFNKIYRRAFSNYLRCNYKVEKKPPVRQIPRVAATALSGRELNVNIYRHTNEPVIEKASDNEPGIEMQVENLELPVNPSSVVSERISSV
Method: (§1) The Structure (FIG. 9A), receptor affinity (FIG. 9B), pharmacokinetics (FIG. 9C) and growth factor modulation (FIG. 9D) of Captodiamine are provided. Analysis of receptor affinities was performed by Novascreen™ and those displacing >20% of the natural ligand are indicated by the filled boxes. Blood levels of Captodiamine were determined by GC mass spectroscopy. In separate samples taken from a cannulated jugular at increasing time intervals following a single intraperitoneal injection of tha drug (5 mg/kg). Growth factor analysis was performed using tissue homogenates and ELISA assays specific for each growth factor (Promega). Values were analysed using a Student t-test and those with a p value<0.05 were accepted as significant and are indicated with an asterisk.
The higher the target inhibition value, the greater the affinity Captodiamine has for this particular receptor as it displaces a greater proportion of the reference ligand. This assay is an automated high throughput assay performed on cell lines that express only one type of receptor and was carried out by Novascreen (www.novascreen.com). Receptor affinity is a good starting point for determining the mechanism of action for a particular compound.

C57B16 mice = assay: Elevated X-maze; format: in vivo; settings: 3 and 5 mg/kg i.p. once daily for 7 days; FIG. 4
Description: The elevated X-Maze, otherwise known as the Elevated Plus Maze is a test that relies on the inherent conflict between exploration of a novel area and avoidance of its aversive features. The test may be used in male or female rats or mice or male gerbils. It is reliable in a wide range of strains and in group-housed or isolated animals. The maze consists of four arms in the form of an x or plus: two open arms and two arms of the same size, also with an open roof but enclosed by walls. The two open arms are opposite each other and converge into a central platform. The animal under investigating is observed by a video camera and its movements scored by the tracking software Ethovision by Noldus. During the experiment the animal is placed in the central platform of the maze facing an open arm and is observed for 5 minutes with the following being measured: number of entries into open arms, number of entries into closed arms, time spent in open arms, time spent in closed arms and finally the time spent in the central square (File et al., Current Protocols in Neuroscience (2004) 8.3.1-8.3.22).
The elevated X-maze has strong claims to validity as an animal model of anxiety and is of great utility in evaluating putative anxiety modulating drugs. The test is based on rodents' natural fear of heights and open spaces. […]

[1] = system: BDNF (Brain-derived neurotrophic factor); assay: BDNF levels in brain regions by ELISA after sub-chronic administration; format: in vivo, mice; settings: sub-chronic 7 day treatment, FIG. 9D
Method: Neurotrophic factor concentration was determined by using an ELISA purchased from Promega Inc;
The Experimental protocol employed in the behavioural evaluation of Captodiamine is set out as follows: Three separate cohorts of C57B16 mice were employed in the behavioural evaluation of Captodiamine (see FIG. 7). Cohort 1 was used to evaluate the drug effect on prepulse inhibition, spatial learning, open-field and novel object recognition. Cohort 2 was used to evaluate drug effects on the forced swim test and the elevated X-maze. The behavioural tests were administered in sequence as per day number indicated in the bar of FIG. 7. The drug was administered by the intraperitoneal route and on the day of training the drug was administered after the behavioural analysis. Cohort 3 was used for analysis of growth factor (GF) expression (such as, for example, Brain Derived Neurotrophic Factor (BDNF and Glial Derived Neurotrophic Factor (GDNF). The brains were removed immediately after sacrifice, the relevant brain areas dissected, homogenised and stored at −80° C. until analysis. Captodiamine/UCD-0620 was administered at doses of 3 and 5 mg/kg. The compound was administered once daily, via the intraperitoneal route, for 7 days prior to testing and the animals were drug-free at time of training.
as §1

[2] = system: patients with depressive states; settings: Azoulay, Le Bezu and Leyritz 1956; cited from earlier work

Q: For `CCCCSc1ccc(C(SCCN(C)C)c2ccccc2)cc1` (stereo not drawn) [Captodiamine, 2-[(4-butylsulfanylphenyl)-phenyl-methyl]sulfanyl-N,N-dimethyl-ethanamin], which inhibition at 1 µM (serotonin 5HT2c receptor) is on record?
A: > 80%

Q: What about the “time exploring the open arms of the elevated X-maze” value (C57B16 mice) of the same compound?
A: significantly longer periods exploring the open arms

Q: What about the “BDNF expression levels, hippocampus” value [1] of the same compound?
A: no effect

Q: And the “BDNF expression levels, hypothalamus” value [1]?
A: significantly increased

Q: And the “BDNF expression levels, prefrontal cortex” value [1]?
A: no effect

Q: And the “clinical usefulness in depressive states resistant to largactil” value [2]?
A: useful in only one patient
